According to US10597388B2, “Pyridazinone herbicides” (FMC CORPORATION, priority 2014, dated 2020):

Tests used:
Type in all cases: in vivo
[1] = tested on: ryegrass, Italian (Italian ryegrass, Lolium multiflorum); test: Test A greenhouse herbicide test, pre- and postemergence
Method in brief: (§1)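 Seeds in loam–sand blend received a preemergence directed soil spray; plants at 2–10 cm, one- to two-leaf stage, received postemergence sprays. Compounds in a non-phytotoxic solvent with surfactant. After about 10 d in a greenhouse, injury rated visually versus untreated controls on a 0–100 scale (100 = complete control).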

[2] = tested on: pigweed (Amaranthus retroflexus); test: as above
Method in brief: as §1

[3] = tested on: wheat (Triticum aestivum); test: as above; details: Postemergence
Method in brief: as §1

[4] = tested on: morningglory (Ipomoea coccinea); test: Test C greenhouse herbicide test, pre- and postemergence
Method in brief: (§2)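 Visual ratings on a 0 to 100 scale (0 = no effect, 100 = complete control) versus untreated controls, scored 13–15 d after treatment. Soil-applied preemergence to seeded loam/sand; foliar postemergence to 1- to 4-leaf plants (2–18 cm) in peat-vermiculite mix; compounds formulated in solvent plus surfactant.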

[5] = tested on: waterhemp (common waterhemp, Amaranthus rudis); test: as above
Method in brief: as §2

[6] = tested on: lambsquarters (Chenopodium album); test: as above
Method in brief: as §2

[7] = tested on: oilseed rape (Brassica napus); test: as above
Method in brief: as §2

[8] = tested on: pigweed (Amaranthus retroflexus); test: as above
Method in brief: as §2

[9] = tested on: ragweed (common ragweed, Ambrosia elatior); test: as above
Method in brief: as §2

[10] = tested on: blackgrass (Alopecurus myosuroides); test: Test A greenhouse herbicide test, postemergence
Method in brief: (§3)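 Pot-grown plants (loam soil/sand blend), 2–10 cm tall at the one- to two-leaf stage, received postemergence sprays of formulated test chemical. After about 10 d in the greenhouse, injury was rated visually against untreated controls on a 0 (no effect) to 100 (complete control) scale.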

[11] = tested on: galium (catchweed bedstraw, Galium aparine); test: Test A greenhouse herbicide test, postemergence
Method in brief: as §3

[12] = Postemergence, 125 g ai/ha, 0 to 100 scale where 0 is no effect and 100 is complete control
[13] = Postemergence, 500 g ai/ha, visual rating after approx. 10 d, 0 to 100 scale (0 no effect, 100 complete control)
[14] = Preemergence, 125 g ai/ha, 0 to 100 scale where 0 is no effect and 100 is complete control
[15] = Preemergence, 500 g ai/ha, 0 to 100 scale where 0 is no effect and 100 is complete control
[16] = 125 g ai/ha, 0 to 100 scale where 0 is no effect and 100 is complete control
[17] = 500 g ai/ha, visual rating after approx. 10 d, 0 to 100 scale (0 no effect, 100 complete control)
[18] = Postemergence, 31 g ai/ha, scale 0 to 100 (0 no effect, 100 complete control)
[19] = Postemergence, 62 g ai/ha, 0 to 100 scale (0 no effect, 100 complete control)
[20] = Postemergence, 250 g ai/ha, scale 0 to 100, 0 no effect, 100 complete control, 13 to 15 d
[21] = postemergence, 125 g ai/ha, scale 0 to 100, 0 no effect, 100 complete control
[22] = Preemergence, 31 g ai/ha, scale 0 to 100, 0 is no effect, 100 is complete control
[23] = Preemergence, 62 g ai/ha, scale 0 to 100, 0 is no effect, 100 is complete control
[24] = Preemergence, 125 g ai/ha, scale 0 to 100, 0 is no effect, 100 is complete control
[25] = Preemergence, 250 g ai/ha, scale 0 to 100, 0 no effect, 100 complete control

COC(=O)Oc1c(C)nn(C)c(=O)c1-c1ccc(F)c2ccccc12 [Compound 130]
Plant response rating, Ryegrass, Italian [1, 12]: 100
Plant response rating, Ryegrass, Italian [1, 13]: 100
Ryegrass, Italian plant response rating [1, 14]: 100
Plant response rating, Ryegrass, Italian [1, 15]: 100
Plant response rating, Pigweed [2, 12]: 100
Plant response rating, Pigweed [2, 13]: 100
Pigweed plant response rating [2, 14]: 90
Plant response rating, Pigweed [2, 15]: 100
Plant response rating, Wheat [3, 16]: 0
Plant response rating, Wheat [3, 17]: 30
Plant response rating, Morningglory [4, 18]: 75
Morningglory plant response rating [4, 19]: 80
Plant response rating, Morningglory [4, 20]: 100
Morningglory plant response rating [4, 21]: 85
Plant response rating, Waterhemp [5, 18]: 70
Waterhemp plant response rating [5, 19]: 85
Plant response rating, Waterhemp [5, 20]: 98
Waterhemp plant response rating [5, 21]: 80
Plant response rating, Lambsquarters [6, 18]: 90
Lambsquarters plant response rating [6, 19]: 98
Plant response rating, Lambsquarters [6, 20]: 100
Lambsquarters plant response rating [6, 21]: 100
Plant response rating, Oilseed Rape [7, 18]: 0
Oilseed Rape plant response rating [7, 19]: 0
Plant response rating, Oilseed Rape [7, 20]: 0
Oilseed Rape plant response rating [7, 21]: 0
Plant response rating, Pigweed [8, 18]: 50
Pigweed plant response rating [8, 19]: 70
Plant response rating, Pigweed [8, 20]: 90
Pigweed plant response rating [8, 21]: 90
Plant response rating, Ragweed [9, 18]: 85
Ragweed plant response rating [9, 19]: 90
Plant response rating, Ragweed [9, 20]: 98
Ragweed plant response rating [9, 21]: 98
Plant response rating, Blackgrass [10, 16]: 60
Plant response rating, Blackgrass [10, 17]: 70
Plant response rating, Galium [11, 16]: 100
Plant response rating, Galium [11, 17]: 100

CCC(=O)Oc1c(OC)nn(C)c(=O)c1-c1c(C)sc2ccc(Cl)cc12 [Compound 131]
Plant response rating, Ryegrass, Italian [1, 12]: 90
Plant response rating, Ryegrass, Italian [1, 13]: 90
Ryegrass, Italian plant response rating [1, 14]: 90
Plant response rating, Ryegrass, Italian [1, 15]: 90
Plant response rating, Pigweed [2, 12]: 60
Plant response rating, Pigweed [2, 13]: 90
Pigweed plant response rating [2, 14]: 80
Plant response rating, Pigweed [2, 15]: 100
Plant response rating, Wheat [3, 16]: 0
Plant response rating, Wheat [3, 17]: 20
Plant response rating, Morningglory [4, 22]: 35
Plant response rating, Morningglory [4, 23]: 55
Plant response rating, Morningglory [4, 24]: 85
Morningglory plant response rating [4, 25]: 95
Plant response rating, Waterhemp [5, 22]: 95
Plant response rating, Waterhemp [5, 23]: 98
Plant response rating, Waterhemp [5, 24]: 98
Waterhemp plant response rating [5, 25]: 100
Plant response rating, Lambsquarters [6, 22]: 60
Plant response rating, Lambsquarters [6, 23]: 70
Plant response rating, Lambsquarters [6, 24]: 85
Lambsquarters plant response rating [6, 25]: 95
Plant response rating, Oilseed Rape [7, 22]: 20
Plant response rating, Oilseed Rape [7, 23]: 40
Plant response rating, Oilseed Rape [7, 24]: 85
Oilseed Rape plant response rating [7, 25]: 80
Plant response rating, Pigweed [8, 22]: 60
Plant response rating, Pigweed [8, 23]: 100
Plant response rating, Pigweed [8, 24]: 100
Pigweed plant response rating [8, 25]: 100
Plant response rating, Ragweed [9, 22]: 65
Plant response rating, Ragweed [9, 23]: 95
Plant response rating, Ragweed [9, 24]: 98
Ragweed plant response rating [9, 25]: 98
Plant response rating, Blackgrass [10, 16]: 30
Plant response rating, Blackgrass [10, 17]: 50
Plant response rating, Galium [11, 16]: 70
Plant response rating, Galium [11, 17]: 100

CC(=O)Oc1c(C)nn(C)c(=O)c1-c1c(C)sc2ccc(C(F)(F)F)cc12 [Compound 132]
Plant response rating, Ryegrass, Italian [1, 12]: 100
Plant response rating, Ryegrass, Italian [1, 13]: 100
Ryegrass, Italian plant response rating [1, 14]: 90
Plant response rating, Ryegrass, Italian [1, 15]: 90
Plant response rating, Pigweed [2, 12]: 60
Plant response rating, Pigweed [2, 13]: 90
Pigweed plant response rating [2, 14]: 90
Plant response rating, Pigweed [2, 15]: 100
Plant response rating, Wheat [3, 16]: 0
Plant response rating, Wheat [3, 17]: 20
Plant response rating, Morningglory [4, 18]: 65
Morningglory plant response rating [4, 19]: 80
Plant response rating, Morningglory [4, 20]: 98
Plant response rating, Morningglory [4, 22]: 40
Plant response rating, Morningglory [4, 23]: 65
Plant response rating, Morningglory [4, 24]: 95
Morningglory plant response rating [4, 25]: 90
Morningglory plant response rating [4, 21]: 95
Plant response rating, Waterhemp [5, 18]: 40
Waterhemp plant response rating [5, 19]: 60
Plant response rating, Waterhemp [5, 20]: 75
Plant response rating, Waterhemp [5, 22]: 90
Plant response rating, Waterhemp [5, 23]: 85
Plant response rating, Waterhemp [5, 24]: 95
Waterhemp plant response rating [5, 25]: 98
Waterhemp plant response rating [5, 21]: 80
Plant response rating, Lambsquarters [6, 18]: 90
Lambsquarters plant response rating [6, 19]: 90
Plant response rating, Lambsquarters [6, 20]: 100
Plant response rating, Lambsquarters [6, 22]: 50
Plant response rating, Lambsquarters [6, 23]: 60
Plant response rating, Lambsquarters [6, 24]: 85
Lambsquarters plant response rating [6, 25]: 100
Lambsquarters plant response rating [6, 21]: 100
Plant response rating, Oilseed Rape [7, 18]: 5
Oilseed Rape plant response rating [7, 19]: 10
Plant response rating, Oilseed Rape [7, 20]: 40
Plant response rating, Oilseed Rape [7, 22]: 70
Plant response rating, Oilseed Rape [7, 23]: 85
Plant response rating, Oilseed Rape [7, 24]: 30
Oilseed Rape plant response rating [7, 25]: 90
Oilseed Rape plant response rating [7, 21]: 5
Plant response rating, Pigweed [8, 18]: 50
Pigweed plant response rating [8, 19]: 55
Plant response rating, Pigweed [8, 20]: 65
Plant response rating, Pigweed [8, 22]: 100
Plant response rating, Pigweed [8, 23]: 100
Plant response rating, Pigweed [8, 24]: 100
Pigweed plant response rating [8, 25]: 100
Pigweed plant response rating [8, 21]: 70
Plant response rating, Ragweed [9, 18]: 65
Ragweed plant response rating [9, 19]: 95
Plant response rating, Ragweed [9, 20]: 98
Plant response rating, Ragweed [9, 22]: 70
Plant response rating, Ragweed [9, 23]: 85
Plant response rating, Ragweed [9, 24]: 95
Ragweed plant response rating [9, 25]: 100
Ragweed plant response rating [9, 21]: 95
Plant response rating, Blackgrass [10, 16]: 30
Plant response rating, Blackgrass [10, 17]: 50
Plant response rating, Galium [11, 16]: 80
Plant response rating, Galium [11, 17]: 100
